What was measured:
Assay type in all cases: in vivo
[1] = system: Myzus persicae (green peach aphid); experiment: Example B5: Myzus persicae feeding/residual contact activity, preventive, mixed population (sunflower leaf discs); conditions: foliar, 144 h, mixed population on sunflower leaf discs, 6 DAT
Procedure: Example B5: Activity Against Myzus persicae (Green Peach Aphid)
(Feeding/Residual Contact Activity, Preventive), Mixed Population
Sunflower leaf discs were placed on agar in a 24-well microtiter plate and sprayed with test solutions. After drying, the leaf discs were infested with an aphid population of mixed ages. After an incubation period of 6 DAT, samples were checked for mortality and special effects (e.g. phytotoxicity).

[2] = system: Spodoptera littoralis (Egyptian cotton leaf worm); experiment: Example B2: Spodoptera littoralis systemic activity (lettuce on agar); conditions: 120 h, systemic via lettuce roots, 5 days after infestation, read-out: effect in at least one of the three categories (mortality, anti-feedancy, or growth inhibition)
Description: Example B2: Activity Against Spodoptera littoralis (Egyptian Cotton Leaf Worm)
Test compounds were applied by pipette into 24 well plates and mixed with agar. Lettuce seeds were placed on the agar and the multi well plate is closed by another plate which contains also agar. After 7 days the roots have absorbed the compound and the lettuce has grown into the lid plate. The lettuce leaves were now cut off into the lid plate. Spodoptera eggs were pipetted through a plastic stencil on a humid gel blotting paper and the plate closed with it. The samples are checked for mortality, repellent effect, feeding behavior, and growth regulation 5 days after infestation.

[3] = system: Tetranychus urticae (two-spotted spider mite); experiment: Example B10: Tetranychus urticae, bean leaf disc spray test; conditions: foliar, 192 h
Procedure: Example B10: Activity Against Tetranychus urticae (Two-Spotted Spider Mite)
Bean leaf discs on agar in 24-well microtiter plates were sprayed with aqueous test solutions prepared from 10′000 ppm DMSO stock solutions. After drying the leaf discs were infested with a mite population of mixed ages. The samples were assessed for mortality on mixed population (mobile stages) 8 days after infestation.

[4] = system: Diabrotica balteata (corn root worm); experiment: Example B4: Diabrotica balteata larvae L2 on maize sprouts, feeding/contact, preventative; conditions: 120 h, 5 days, read-out: activity (larval mortality and growth regulation)
Procedure: Example B4: Activity Against Diabrotica balteata (Corn Root Worm)
(Larvae L2 on Maize Sprouts, Feeding/Contact, Preventative)
Maize sprouts, placed on an agar layer in 24 well micro titer plates were treated with test solutions by spraying. After drying, the MTPs were infested with L2 larvae (6-10 per well). After an incubation period of 5 days, samples were checked for larval mortality and growth regulation.

[5] = system: Spodoptera littoralis (Egyptian cotton leaf worm); experiment: Example B1: Spodoptera littoralis larvicide, feeding/residual contact activity, preventive (cotton leaf discs); conditions: foliar, 72 h, L1 larvae on sprayed cotton leaf discs, 3 days after treatment, read-out: effect in at least one of the three categories (mortality, anti-feedancy, or growth inhibition)
Description: Example B1: Activity Against Spodoptera littoralis (Egyptian Cotton Leaf Worm)
(§1) (Larvicide, Feeding/Residual Contact Activity, Preventive)
Cotton leaf discs were placed on agar in a 24-well microtiter plate and sprayed with test solutions. After drying, the leaf discs were infested with five L1 larvae. The samples were checked for mortality, repellent effect, feeding behaviour, and growth regulation 3 days after treatment (DAT). Control of Spodoptera littoralis by a test sample is when at least one of mortality, anti-feedant effect, and growth inhibition is higher than an untreated sample.

[6] = system: Plutella xylostella (diamond back moth); experiment: Example B3: Plutella xylostella larvicide, feeding/residual contact activity, preventive (artificial diet); conditions: 120 h, L2 larvae on artificial diet, 5 days, read-out: activity (larval mortality, antifeedant and growth regulation)
Procedure: Example B3: Activity Against Plutella xylostella (Diamond Back Moth)
as §1
24-well microtiter plate (MTP) with artificial diet was treated with test solutions by pipetting. After drying, the MTPs were infested with L2 larvae (10-15 per well). After an incubation period of 5 days, samples were checked for larval mortality, antifeedant and growth regulation.

[7] = system: Myzus persicae (green peach aphid); experiment: Example B9: Myzus persicae systemic/feeding activity, curative, mixed population (pea seedling roots); conditions: 144 h, pea seedling roots in test solution, 6 days after introduction
Description: Example B9: Activity Against Myzus persicae (Green Peach Aphid)
(Systemic/Feeding Activity, Curative), Mixed Population
Roots of pea seedlings, infested with an aphid population of mixed ages, were placed directly in the test solutions. 6 days after introduction, samples were checked for mortality and special effects on the plant.

[8] = system: Myzus persicae (green peach aphid); experiment: Example B6: Myzus persicae feeding activity sachet test, mixed population; conditions: 120 h, sucrose solution, 5 days after infestation
Description: Example B6: Activity Against Myzus persicae (Green Peach Aphid)
(Feeding Activity Sachet Test), Mixed Population
Test compounds were applied by pipette into 24 well plates and mixed with Sucrose solution. The plates were closed with a stretched Parafilm. A plastic stencil with 24 holes is placed onto the plate and infested pea seedlings were placed directly on the Parafilm. The infested plate is closed with a gel blotting paper and another plastic stencil and then turned upside down. 5 days after infestation the samples were checked on mortality. Application rate: 12.5 ppm.

[9] = system: Bemisia tabaci (cotton white fly); experiment: Example B7: Bemisia tabaci adulticide contact activity, preventative (cotton leaf discs); conditions: foliar, 168 h, adult white flies on cotton leaf discs, 7 DAT
Procedure: Example B7: Activity Against Bemisia tabaci (Cotton White Fly)
(Adulticide Contact Activity, Preventative), Adult
Cotton leaf discs were placed on agar in a 24-well microtiter plate and sprayed with test solutions. After drying, the leaf discs were infested with adult white flies. After an incubation period of 7 DAT, samples were checked for mortality and special effects (e.g. phytotoxicity).

[10] = system: Euschistus heros (neotropical brown stink bug); experiment: Example B8: Euschistus heros, soybean leaf spray test; conditions: 120 h, N-2 nymphs on soybean leaf, 5 days after infestation
Procedure: Example B8: Activity Against Euschistus heros (Neotropical Brown Stink Bug)
Soybean leaf on agar in 24-well microtiter plates were sprayed with aqueous test solutions prepared from 10,000 ppm DMSO stock solutions. After drying the leaf were infested with N-2 nymphs. The samples were assessed for mortality 5 days after infestation.

| SMILES | mortality at 400 ppm [1] | percent control (mortality, anti-feedancy or growth inhibition) at 12.5 ppm [2] | mortality at 400 ppm [3] | mortality at 400 ppm [4] | percent control (mortality, anti-feedancy or growth inhibition) at 400 ppm [5] | mortality at 400 ppm [6] | mortality at 24 ppm [7] | mortality at 12.5 ppm [8] | mortality at 400 ppm [9] | mortality at 400 ppm [10] |
| --- | --- | --- | --- | --- | --- | --- | --- | --- | --- | --- |
| CCS(=O)(=O)c1cc(C(F)(F)F)cnc1-c1ncc(-c2cc(C(F)(F)F)ccn2)n1C [Compound P3] | > 80% | ≥ 80% | ≥ 80% | > 80% | ≥ 80% |  |  |  |  |  |
| CCS(=O)(=O)c1cc(C(F)(F)F)cnc1-c1ncc(-c2ccc(F)nc2)n1C [Compound P54] |  |  |  | > 80% | ≥ 80% | > 80% | ≥ 80% | ≥ 80% |  |  |
| CCS(=O)(=O)c1cc(C(F)(F)F)cnc1-c1ncc(-c2ccnc(F)c2)n1C [Compound P39] |  |  |  | > 80% | ≥ 80% | > 80% | ≥ 80% | ≥ 80% |  |  |
| CCS(=O)(=O)c1cc(C(F)(F)F)cnc1-c1ncc(-c2ccnc(C(F)(F)F)c2)n1C [Compound P6] | > 80% |  |  | > 80% | ≥ 80% | > 80% |  |  | > 80% |  |
| CCS(=O)(=O)c1cc(C(F)(F)F)cnc1-c1ncc(-c2ccc(S(=O)(=O)C(F)(F)F)cc2)n1C [Compound P12] |  | ≥ 80% |  | > 80% | ≥ 80% | > 80% |  |  |  |  |
| CCS(=O)(=O)c1cc(C(F)(F)F)ccc1-c1ncc(-c2ccc(C(F)(F)F)cc2)n1C [Compound P9] | > 80% | ≥ 80% |  | > 80% | ≥ 80% | > 80% |  |  | > 80% |  |
| CCS(=O)(=O)c1cc(C(F)(F)F)cnc1-c1ncc(-c2ccc(SC(F)(F)F)cc2)n1C [Compound P15] | > 80% | ≥ 80% |  | > 80% | ≥ 80% | > 80% |  |  | > 80% | > 80% |
| CCS(=O)(=O)c1cc(C(F)(F)F)ccc1-c1ncc(-c2ccc(C(F)(F)F)nc2)n1C [Compound P10] | > 80% | ≥ 80% |  | > 80% | ≥ 80% | > 80% |  |  | > 80% |  |
| CCS(=O)(=O)c1cc(C(F)(F)F)cnc1-c1ncc(-c2ccc(C(F)(F)F)nc2)n1C [Compound P4] | > 80% | ≥ 80% |  | > 80% | ≥ 80% | > 80% | ≥ 80% |  | > 80% | > 80% |
| CCS(=O)(=O)c1cc(C(F)(F)F)cnc1-c1ncc(-c2cnc(C(F)(F)F)nc2)n1C [Compound P50] |  |  |  | > 80% | ≥ 80% | > 80% | ≥ 80% | ≥ 80% |  |  |
